Assay results from US11484501B2, “Mechanochemical activated dry amorphisation by milling equilibrium between ap mesoporous silica” (priority 2015, dated 2022).

Assay: Amorphonisation of co-milled drug by X-ray diffraction and DSC
Type: physicochemical
Conditions: vibration ball mill
Experimental: Amorphonisation of co-milled IBU was confirmed by DSC and X-RD study. Drug release studies were conducted by and using USP Dissolution apparatus II and media (e.g., acetate buffer) of pH 4.5. Formation of hydrogen bond between silanol groups of SYLOID® silica and functional groups of IBU were believe to be the key to drug amorphonisation in the co-milling process. To confirm the IBU amorphonisation, X-ray diffraction study (XRD) was conducted. […] Additionally, DSC studies were conducted to understand the amorphonisation and possible interaction between silanol groups of SYLOID® silica and IBU. DSC thermograms, shown in FIGS. 5A-5B, confirmed both change in enthalpy and symmetry of peak shape.

SMILES: CC(C)Cc1ccc(C(C)C(=O)O)cc1 (stereo not shown) [IBU, ibuprofen]
- amorphonisation of the crystalline drug into an amorphous state by (co-)milling: does not result in an amorphous form
